“Also recorded” adds a separate entry of the source.
Key:
[1] = cited from earlier work
pri-miR-9-3 = pri-miR-9-3 transcript levels in TALH of treated mouse kidneys (real-time PCR); assay type: in vivo; conditions: 30 mg/kg BW−1; 2 hrs or 8 hrs
From the text: (§1) Total RNA including microRNA was extracted using Trizol (Invitrogen). Cellular mRNA was reverse transcribed using the Superscript-III kit (Invitrogen), followed by real-time PCR amplification using SYBR Green PCR Master Mix (Bio-Rad) and Eppendorf Realplex2S system. The design of claudin-14 primers was described above. The design of pri-miRNA primers was according to Ma et al., (2010). Results were expressed as 2^−ΔCt values with ΔCT=Ctgene−Ctβ-actin.
(§2) To measure the transcriptional level for microRNA gene in vivo in the kidney, the inventors designed primers (see Methods; Table 2) to amplify the pri-miRNA molecule, the original transcript for microRNA gene that had not yet been subjected to any nuclear or cellular processing. Because both miR-9 and miR-374 had broader localization profiles along the nephron, the inventors isolated the TALH tubular cells for pri-miRNA analyses from the mouse kidney described elsewhere in this study. WT mice (strain: C57BL/6) were treated with NPS2143 or cinacalcet as described for claudin-14 analyses and assayed for pri-miRNA levels in isolated TALH cells at 2 hrs and 8 hrs respectively. […] NPS2143 and cinacalcet also profoundly regulated pri-miR-374. […]
(§3) Total RNA including microRNA was extracted using Trizol (Invitrogen). […] Results were expressed as 2^−ΔCt values with ΔCT=Ctgene−Ctβ-actin.

pri-miR-9-2 = pri-miR-9-2 transcript levels in TALH of treated mouse kidneys (real-time PCR); assay type: in vivo; conditions: 30 mg/kg BW−1; 2 hrs or 8 hrs
From the text: as §1, §2, §3

[2] = tested on: CLDN16, CLDN19, TRPV5, TRPM6, NKCC2, ROMK, TSC, Klotho and VDR; assay: gene expression of renal ion transporters in SAHA treated mouse kidneys (real-time PCR); assay type: in vivo; conditions: SAHA versus vehicle
From the text: FIG. 25 illustrates gene expression analyses of renal ion transporters in SAHA versus vehicle treated mouse kidneys by real-time PCR. Values are shown as fold ratios relative to the vehicle level (as mean±SEM; n=5).
Total RNA including microRNA was extracted using Trizol (Invitrogen). Cellular mRNA was reverse transcribed using the Superscript-III kit (Invitrogen), followed by real-time PCR amplification using SYBR Green PCR Master Mix (Bio-Rad) and Eppendorf Realplex2S system. The design of claudin-14 primers was described before by Gong et al., 2012. The design of pri-miRNA primers and ChIP primers was according to Gong et al., 2013. Results were expressed as 2^−ΔCt values with ΔCT=Ctgene−Ctβ-actin.

CLDN14 mRNA = CLDN14 mRNA levels in primary cultures / freshly isolated mouse TALH cells (real-time PCR); assay type: cell-based; conditions: versus vehicle
Experimental: (§4) An immunomagnetic separation method was used to isolate the TAL cells from the mouse kidney (Hou et al., 2009). Antibodies against the TAL cell specific surface antigen, Tamm-Horsfall protein (THP), were coated onto the paramagnetic polystyrene beads (Dynabeads M-280; Dynal), allowing immunoprecipitation of the TAL cells from collagenase digested mouse kidneys. The isolated cells were plated in DMEM medium supplemented with 10% FBS, penicillin/streptomycin, and 1 mM sodium pyruvate for 16 hours, followed by immediate transfection with NFAT or antagomirs.
as §1
as §4, with “TALH” for “TAL”, “kidney. (Gong Y,” for “kidney (Hou”, “al. 2012 and Gong Y, et al. 2013)” for “al., 2009).”, “protein,” for “protein (THP),”, “treatment.” for “transfection with NFAT or antagomirs.”
Total RNA including microRNA was extracted using Trizol (Invitrogen). Cellular mRNA was reverse transcribed using the Superscript-III kit (Invitrogen), followed by real-time PCR amplification using SYBR Green PCR Master Mix (Bio-Rad) and Eppendorf Realplex2S system. […] Results were expressed as 2^−ΔCt values with ΔCT=Ctgene−Ctβ-actin. […]
Total RNA including microRNA was extracted using Trizol (Invitrogen). […] Results were expressed as 2^−ΔCt values with ΔCT=Ctgene−Ctβ-actin. […]

SMILES: C[C@@H](NCCCc1cccc(C(F)(F)F)c1)c1cccc2ccccc12 [cinacalcet]
- time to maximal serum concentration after oral administration ([1]; oral): 1.5 to 3 h
- half-life of absorbed cinacalcet ([1]; serum): 30 to 40 h
- pri-miR-9-3 level, change (pri-miR-9-3): Neither pri-miR-9-2 (FIG. 12B) nor pri-miR-9-3 level (FIG. 12C) was significantly altered; also recorded: Neither pri-miR-9-2 (FIG. 29B) nor pri-miR-9-3 level (FIG. 29C) was significantly altered
- pri-miR-9-2 level, change (pri-miR-9-2): Neither pri-miR-9-2 (FIG. 12B) nor pri-miR-9-3 level (FIG. 12C) was significantly altered; also recorded: Neither pri-miR-9-2 (FIG. 29B) nor pri-miR-9-3 level (FIG. 29C) was significantly altered

SMILES: O=C(CCCCCCC(=O)Nc1ccccc1)NO [SAHA, Suberanilohydroxamic acid]
- expression levels of other major Ca++/Mg++ transporters from the kidney [2]: nor did the inventors find any significant change
- CLDN14 mRNA levels, downregulation (CLDN14 mRNA; 0.1 μM): 38%
- CLDN14 mRNA levels, downregulation (CLDN14 mRNA; 0.33 μM): 54%

SMILES: CC(C)(Cc1ccc2ccccc2c1)NC[C@@H](O)COc1cccc(Cl)c1C#N [NPS2143]
- pri-miR-9-3 level, change (pri-miR-9-3): Neither pri-miR-9-2 (FIG. 12B) nor pri-miR-9-3 level (FIG. 12C) was significantly altered; also recorded: Neither pri-miR-9-2 (FIG. 29B) nor pri-miR-9-3 level (FIG. 29C) was significantly altered
- pri-miR-9-2 level, change (pri-miR-9-2): Neither pri-miR-9-2 (FIG. 12B) nor pri-miR-9-3 level (FIG. 12C) was significantly altered; also recorded: Neither pri-miR-9-2 (FIG. 29B) nor pri-miR-9-3 level (FIG. 29C) was significantly altered
